According to ChEMBL document CHEMBL3271982, “Synthesis and antiinflammatory properties of N-substituted 4,5-dioxopyrrolidine-3-carboxanilides” (J Med Chem, 1976):
The source made the active and inactive calls. The rule behind the calls is not given here.

Columns and labels:
Rattus norvegicus [1] = assay: Antiinflammatory activity in rat assessed as inhibition of carrageenin-induced foot edema at 33 mg/kg, po; type: functional, organism-based; parameters: dose 33 mg/kg
[2] = Ionization constant, pKa of the compound; type: physicochemical
Rattus norvegicus [3] = assay: Antiinflammatory activity in rat assessed as inhibition of carrageenin-induced foot edema at 100 mg/kg, po; type: functional

SMILES	inhibition (Rattus norvegicus [1])	pKa [2]	inhibition in vivo at 100 mg/kg (Rattus norvegicus [3]) [%]
COc1ccc(NC(=O)C2CN(c3ccccc3)C(=O)C2=O)cc1 (stereo unspecified)	Active		
Cc1ccc(NC(=O)C2CN(C)C(=O)C2=O)cc1 (stereo unspecified)	Active	5.79	
CN1CC(C(=O)Nc2ccc(Cl)cc2)C(=O)C1=O (stereo unspecified)	Active	5.51	
CN1CC(C(=O)Nc2ccc(F)cc2)C(=O)C1=O (stereo unspecified)	Active	5.55	
O=C(Nc1ccccc1Cl)C1CN(c2ccccc2)C(=O)C1=O (stereo unspecified)	Active		
CC(=O)Oc1ccccc1C(=O)O [ASPIRIN]			50
COc1ccc(NC(=O)C2CN(C)C(=O)C2=O)cc1 (stereo unspecified)	Active	5.84	
O=C(Nc1ccccc1)C1CN(c2ccccc2)C(=O)C1=O (stereo unspecified)	Active	5.58	
O=C(Nc1ccccc1C(F)(F)F)C1CN(c2ccccc2)C(=O)C1=O (stereo unspecified)	Active	5.87	
CN1CC(C(=O)Nc2ccccc2)C(=O)C1=O (stereo unspecified)	Active	5.86	
COc1ccccc1NC(=O)C1CN(C)C(=O)C1=O (stereo unspecified)	Active	6.08	
O=C(Nc1ccc(Cl)cc1)C1CN(c2ccccc2)C(=O)C1=O (stereo unspecified)	Active		
COc1ccccc1NC(=O)C1CN(c2ccccc2)C(=O)C1=O (stereo unspecified)	Active	6.19	
CCOC(=O)c1ccccc1NC(=O)C1CN(C)C(=O)C1=O (stereo unspecified)	Active	6.49	
O=C(Nc1ccc(C(F)(F)F)cc1)C1CN(c2ccccc2)C(=O)C1=O (stereo unspecified)	Active		
CN1CC(C(=O)Nc2ccc(C(F)(F)F)cc2)C(=O)C1=O (stereo unspecified)	Active		
